Test results from patent US20230330060A1, “COMPOUNDS FOR TREATMENT OF HEART FAILURE” (Sulfateq B.V., priority 2020, published 2023).

How the values were obtained:
[1] = test system: doxorubicin-induced heart failure; test: Cardiac oxidative stress: lipid peroxidation (TBARS); assay type: in vivo, rat; settings: doxorubicin rats; SUL-150 in prophylaxis or therapeutic regime
Experimental: The SUL-150 solution was sprayed homogeneously over standard food pellets (1.25 kg). […] Food pellets were freshly prepared weekly. With the approximation of 200 mg·kg^−1 SUL-150 in the food pellets and a daily dietary intake of 25 gram for a 350 gram rat, daily dosing of SUL-150 approximates 5 mg·day^−1. Male outbred Wistar rats of 250-300 grams (10-12 weeks old) were kept on a 12 h light/dark cycle and received a standard diet with distilled water ad libitum. Thirty rats were administered with doxorubicin (2 mg·kg^−1) weekly via intraperitoneal injection for 9 consecutive weeks and were left either untreated (standard chow diet, 10 rats), or received a diet supplemented with SUL-150 as prophylaxis (prior to the 1st doxorubicin administration, 10 rats) or therapy (starting after the 6th doxorubicin administration, 10 rats). Sham control rats (8 rats) were administered with saline weekly via intraperitoneal injection for 9 consecutive weeks and received a standard diet. All rats were subjected to cardiac function assessment 12 weeks after the first doxorubicin administration. Cardiac tissue samples were homogenized in ddH2O using a TissueRuptor II (Qiagen, Hilden, Germany) followed by sonication at 20 kHz for 3×1 min (Sonopuls 2000, Bandelin, Berlin, Germany) and centrifugation at 14000 g to pellet insoluble proteins. […]

[2] = test system: doxorubicin-induced heart failure; test: Cardiac function assessment by PV-loop analysis in rats with doxorubicin-induced heart failure; assay type: in vivo, rat; settings: for ESP (End-systolic pressure): doxorubicin 2 mg/kg weekly i.p. x9, mean±S.D.; for ESP (End-systolic pressure) / Contractility efficiency / EDP (end-diastolic pressure) / EDV (end-diastolic volume) / ESV (end-systolic volume) / Ea (Arterial elastance) / Ees (ESPVR) end-systolic elastance / Emax (EDPVR) maximal elastance / PRSW (preload recruitable stroke work) / SV (stroke volume) / Tau (time constant of LV pressure decay) / dP/dTmax / dP/dTmin: 12 weeks; for Contractility efficiency / EDP (end-diastolic pressure) / EDV (end-diastolic volume) / ESV (end-systolic volume) / Ea (Arterial elastance) / Ees (ESPVR) end-systolic elastance / Emax (EDPVR) maximal elastance / PRSW (preload recruitable stroke work) / SV (stroke volume) / Tau (time constant of LV pressure decay) / dP/dTmax / dP/dTmin / Cardiac function (heart rate, ejection fraction, stroke work, cardiac output), FIG. 1: doxorubicin rats; for Contractility efficiency / EDP (end-diastolic pressure) / EDV (end-diastolic volume) / ESV (end-systolic volume) / Ea (Arterial elastance) / Ees (ESPVR) end-systolic elastance / Emax (EDPVR) maximal elastance / PRSW (preload recruitable stroke work) / SV (stroke volume) / Tau (time constant of LV pressure decay) / dP/dTmax / dP/dTmin: SUL-150 diet; for Cardiac function (heart rate, ejection fraction, stroke work, cardiac output), FIG. 1: p<0.05 vs doxorubicin group
Experimental: The effectiveness of the compounds according to the invention for treatment or prophylaxis of HFrEF was tested in vivo in rats. Doxorubicin, an anthracycline antibiotic used in cancer chemotherapy, was employed to induce heart failure with reduced ejection fraction in preclinical rat models (Christiansen et al. (2006) Eur. J. Cardiothorac. Surg. 30:611-616; Ertunc et al. (2009) Pharmacology 84:240-248; Hayward et al. (2007) J. Am. Ass. Lab. Animal Sci. 46:20-32). […] The SUL-150 solution was sprayed homogeneously over standard food pellets (1.25 kg). […] Food pellets were freshly prepared weekly. With the approximation of 200 mg/kg SUL-150 in the food pellets and a daily dietary intake of 25 gram for a 350 gram rat, daily dosing of SUL-150 approximates 5 mg per day. Male outbred Wistar rats of 250-300 grams (10-12 weeks old) were kept on a 12h light/dark cycle and received a standard diet with distilled water ad libitum. Thirty rats were administered with doxorubicin (2 mg/kg) weekly via intraperitoneal injection for 9 consecutive weeks and were left either untreated (standard chow diet, 10 rats), or received a diet supplemented with SUL-150 as prophylaxis (prior to the 1st doxorubicin administration, 10 rats) or therapy (starting after the 6th doxorubicin administration, 10 rats). Sham control rats (8 rats) were administered with saline weekly via intraperitoneal injection for 9 consecutive weeks and received a standard diet. All rats were subjected to cardiac function assessment 12 weeks after the first doxorubicin administration. Cardiac function tests (PV-Loop assessment) were performed under anaesthesia (isoflurane in O2 (FiO2 100%)) followed by orotracheal intubation. The rats were placed in a mechanical rodent ventilator (Harvard Apparatus, Holliston, Massachusetts) with tidal volume of 10 mL/kg and 70 breaths per minute. A small window was opened below the sternum and with a small incision a 2F microtip pressure-conductance catheter (SPR-838; Millar Instruments, Houston, Tx) was inserted directly on the left ventricle (LV) through the apex. After stabilization, signals were recorded with a pressure-volume conductance System ([…]-Ultra, Millar Instruments, Houston, Tx) connected to a data acquisition system (PowerLab, AD Instruments, Colorado Springs, Co). […] Volume calibration was performed with fresh heparinized warm blood from each animal. Also, […] of 7.5% hypertonic saline was injected at the end of each experiment for the parallel conductance volume calibration. Data is analysed in GraphPad Prism 8.0 (GraphPad Software Inc, Ca). All results are expressed as mean±S.D. (standard deviation) or median and interquartile interval. The difference between groups was assessed by ANOVA followed by pairwise comparisons to the sham and vehicle treatment groups with p-values adjusted for multiple comparisons using FDR correction.

[3] = therapeutic (after 6th doxorubicin)

Structure (SMILES): Cc1c(C)c2c(c(C)c1O)CC[C@](C)(C(=O)N1CCNCC1)O2 [SUL-150, (R)-(6-hydroxy-2,5,7,8-tetramethylchroman-2-yl)(piperazin-1-yl)methanone]
- Cardiac lipid peroxidation products (TBARS), FIG. 5A [1]: mitigates cardiac lipid peroxidation
- ESP (End-systolic pressure) ([2]; SUL-150 in diet (approx. 5 mg per day) as prophylaxis, prior to 1st doxorubicin): 104.4 ± 12.3 mmHg
- ESP (End-systolic pressure) ([2]; SUL-150 in diet (approx. 5 mg per day) as therapy, after 6th doxorubicin): 114.3 ± 18.4 mmHg
- Contractility efficiency ([2]; prophylaxis): 53.0 ± 16.4 %
- EDP (end-diastolic pressure) ([2]; prophylaxis): 8.1 ± 3.0 mmHg
- EDV (end-diastolic volume) ([2]; prophylaxis): 325.0 ± 144^ μl
- ESV (end-systolic volume) ([2]; prophylaxis): 175.3 ± 107^ μl
- Ea (Arterial elastance) ([2]; prophylaxis): 0.7 ± 0.2 mmHg · μl−1
- Ees (ESPVR) end-systolic elastance ([2]; prophylaxis): 0.7 ± 0.6 mmHg · μl−1
- Emax (EDPVR) maximal elastance ([2]; prophylaxis): 0.04 ± 0.03 mmHg · μl−1
- PRSW (preload recruitable stroke work) ([2]; prophylaxis): 9.9 ± 4.0 mmHg · ml−1
- SV (stroke volume) ([2]; prophylaxis): 149.7 ± 55.† μl
- Tau (time constant of LV pressure decay) ([2]; prophylaxis): 12.5 ± 3.1
- dP/dTmax ([2]; prophylaxis): 6144 ± 1782 mmHg · s−1
- dP/dTmin ([2]; prophylaxis): −5006 ± 1140 mmHg · s−1
- Contractility efficiency [2, 3]: 47.1 ± 18.1 %
- EDP (end-diastolic pressure) [2, 3]: 7.4 ± 3.7 mmHg
- EDV (end-diastolic volume) [2, 3]: 363.1 ± 115^ μl
- ESV (end-systolic volume) [2, 3]: 205.0 ± 96.4 µL
- Ea (Arterial elastance) [2, 3]: 0.7 ± 0.2 mmHg · μl−1
- Ees (ESPVR) end-systolic elastance [2, 3]: 0.5 ± 0.4 mmHg · μl−1
- Emax (EDPVR) maximal elastance [2, 3]: 0.03 ± 0.02 mmHg · μl−1
- PRSW (preload recruitable stroke work) [2, 3]: 11.0 ± 3.9 mmHg · ml−1
- SV (stroke volume) [2, 3]: 158.1 ± 55.† μl
- Tau (time constant of LV pressure decay) [2, 3]: 13.6 ± 5.2
- dP/dTmax [2, 3]: 6487 ± 1665 mmHg · s−1
- dP/dTmin [2, 3]: −5092 ± 1447 mmHg · s−1
- Cardiac function (heart rate, ejection fraction, stroke work, cardiac output), FIG. 1 ([2]; SUL-150 via food pellets after 6 cumulative doxorubicin administrations (therapeutic group)): substantially improves the cardiac function
- Cardiac function (heart rate, ejection fraction, stroke work, cardiac output), FIG. 1 ([2]; SUL-150 via food pellets prior to doxorubicin (prophylaxis group)): substantially preserves cardiac function and largely maintains ejection fraction and cardiac output
